These results are taken from publication PMC4351204, “Amyloid Precursor Protein Mediated Changes in Intestinal Epithelial Phenotype In Vitro” (PLoS ONE, 2015).

In series [1] the test system is Caco-2 cells. Nature of the series: Cytokine ELISAs (IL-8, MCP-1, MDC, IL-6, TNFα) of media from stimulated Caco-2 cells. It counts as cell-based, human. The settings on record: ELISA of media, normalized to protein, 6 samples. A general note: In an ELISA, binding on a coated surface is turned into a signal by an enzyme label.
In series [2] the test system is Caco-2 cells. Kind of series: Cholesterol Uptake Cell-Based Assay (NBD Cholesterol). The settings on record: 40 min; for Cholesterol uptake: 8 samples. On the set-up: species or system human. Here is the method:
Cholesterol was measured following the protocol provided in the Cholesterol Uptake Cell-Based Assay Kit from Cayman Chemical Company (Ann Arbor, Michigan USA). […] At the end of treatment, the plates were aspirated and cell-based assay buffer was added to each well and NBD Cholesterol uptake was quantified using a fluorescent plate reader (480 nm excitation and 520 nm emission).
Fig 4 Aβ and 22C11 agonist decreased cholesterol uptake whereas the sAPP-derived peptide and SM-ϕ stimulated increased cholesterol uptake by Caco-2 cells. […] Representative data from 3 independent experiments are shown.

Series [3] deals with Caco-2 cells. Kind of series: Western blotting of protein levels in stimulated Caco-2 cells. It counts as cell-based, human. The settings on record: western blot, 3 samples. As for the experimental part: Following stimulation, cells were lysed using ice cold radioimmunoprecipitation assay (RIPA) buffer (20mM Tris, pH 7.4, 150mM NaCl, 1mM Na3VO4, 10mM NaF, 1mM EDTA, 1mM EGTA, 0.2mM phenylmethylsulfonyl fluoride, 1% Triton, 0.1% SDS, and 0.5% deoxycholate) with protease inhibitors (AEBSF 1mM, Aprotinin 0.8μM, Leupeptin 21μM, Bestatin 36μM, Pepstatin A 15μM, E-64 14μM) and 50U/mL DNAse1(Amresco Inc, Solon, OH, USA). To remove insoluble material cell lysates were sonicated and centrifuged (14,000 rpm, 4°C, 10 min). The Bradford method was used to quantify protein concentrations. Proteins were resolved by 7 or 10% sodium dodecyl sulfate-polyacrylamide gel electrophoresis (SDS-PAGE) and transferred to polyvinylidene difluoride membranes (PVDF) for western blotting using anti-APP (Y188), CD36, occludin, LFABP, FATP4, pSrc, cSrc, and GAPDH (loading control) antibodies. Antibody binding was detected with enhanced chemiluminescence (GE Healthcare, Piscataway, NJ). In some instances, blots were stripped in […], 10 min, 25°C, for reprobing. Western blots were quantified using Adobe Photoshop software. Optical densities of bands were normalized against their respective loading controls and averaged (+/-SD).
Fig 5 Aβ, APP, and CD36 stimulations selectively altered protein levels in Caco-2 cells.
Background: In western blotting, separated proteins are transferred to a membrane and probed.

The test system of series [4] is HepG2 hepatocyte line. The arrangement: method as in PMID 8898096. The settings on record: Aβ 1–40 treatment of human HepG2 hepatocyte line; cited from earlier work.
In series [5] the test system is Caco-2 cells. Nature of the series: Aβ uptake assay with FITC labeled Aβ 1–40. It counts as in vitro ADME, human. Here is the method: FITC labeled Aβ 1–40 was prepared according to the manufacturer’s protocol (rPeptide, Bogart, GA, USA). 500nM of the peptide was added to confluent cells in serum free DMEM/F12 for 4 hours in the absence or presence of 10ng/mL LPS. The media was then removed and extracellular peptide signal was quenched by rinsing cells with 0.25% trypan blue dissolved in PBS. The trypan blue incubation served to quench FITC-Aβ signal from any peptide that was associated with the extracellular plasma membrane surface or with the tissue culture plastic of the wells. Intracellular Aβ signal was then quantified using a fluorescent plate reader (480 nm excitation and 520 nm emission).
(§1) Fig 2 Caco-2 cells secreted and took up Aβ. […] The cells were rinsed with trypan blue to quench extracellular signal from FITC-Aβ on the cell surface or surface of the tissue culture dish and intracellular Aβ fluorescence was measured with a fluorescent plate reader (480 nm excitation and 520 nm emission) (B).

Series [6] has as its system Caco-2 cells. Kind of series: Aβ 1–40 and Aβ 1–42 ELISA of media from stimulated Caco-2 cells (Aβ secretion). It counts as cell-based, human. The settings on record: overnight stimulation in serum free DMEM/F12; 10ng/mL LPS or 1μg/mL 22C11; 3 experiments in a replicate of 8. Here is the method: Caco-2 cells were purchased from ATCC (Manassas, VA, USA). These are an epithelial-like cell line derived from a colorectal adenocarcinoma from a person. Caco-2 cells were maintained in DMEM/F12 (Gibco, Life Technologies, Grand Island, NY, USA) supplemented with 10% heat inactivated fetal bovine serum (FBS), 5% donor horse serum (Serum Source International, Charlotte, NC, USA) and antibiotics (0.05mg penicillin/0.05mg streptomycin/0.01mg neomycin/mL) (Sigma-Aldrich, St. Louis, MO, USA). Caco-2 cells were plated and allowed to grow to confluency before removing supplemented media and replacing with serum free DMEM/F12 with or without treatments. Following stimulation, Caco-2 cells were used for ELISA, Aβ uptake, cholesterol assays, immunoprecipitation, and western blot analysis.
The cells were lysed using ice cold RIPA buffer with protease inhibitors and 50U/mL DNAse1. […] The Bradford method was used to quantify protein concentrations for normalization of Aβ in the media and lysates were used for western blotting.
as §1

Details of series [7]: method as in PMID 12897403. The settings on record: in vivo, iv; cited from earlier work.

“Aβ 1–40: amyloid β 1–40 peptide purchased from rPeptide”: the IL-6 cytokine secretion result in series [1] (1μM Aβ 1–40, 24h) was “increased”. Also, the Cholesterol uptake result in series [2] (100nM, 1μM and 5μM Aβ 1–40 (all three concentrations), 20μg/ml NBD Cholesterol) is recorded as “decreased”. Besides, the “Cholesterol uptake, concentration comparison” value in series [2] (1μM Aβ 1–40 compared with 100nM and 5μM) was “most dramatic effect”. In series [3] (1μM Aβ 1–40 overnight, compared to control untreated cells), the “protein levels of other proteins examined (besides occludin)” value is “no effect”. Besides, in series [3] (overnight stimulation, 1μg/mL antibody or 1μM Aβ 1–40), the occludin protein levels result is reported as “decreased”. In series [4], the “steady state levels of intracellular cholesterol, cholesterol esters, phospholipids, and triacylglycerol” value is “attenuate”.

“fluorescently labeled Aβ 1–40: FITC labeled Aβ 1–40 prepared according to the manufacturer's protocol (rPeptide)”: the “Uptake of fluorescently labeled Aβ 1–40 into cells (intracellular fluorescence)” value in series [5] (500nM FITC Aβ 1–40, 4 hr, confluent Caco-2, serum free DMEM/F12, extracellular signal quenched with 0.25% trypan blue, fluorescent plate reader 480/520 nm, 3 experiments in a replicate of 8) was “could take up Aβ peptide”.

In the case of lipopolysaccharide [LPS], the “Aβ secretion (Aβ 1–40 and Aβ 1–42 ELISA)” value in series [6] was “higher concentrations of Aβ 1–40 compared to Aβ 1–42 released”. In series [5] (10ng/mL LPS present with 500nM FITC Aβ 1–40, 4 hr), the “Effect on uptake of FITC Aβ 1–40 by Caco-2 cells” value is “not affected”. In series [1] (10ng/mL LPS, 24h), the IL-8 cytokine secretion entry is on record as “increased” and the TNFα cytokine secretion entry is listed as “increased”. In addition, the Cholesterol uptake result in series [2] (10ng/mL LPS, 20μg/ml NBD Cholesterol in glucose free HBSS) is listed as “increased”.

For the substance “radiolabeled Aβ 1–40: radiolabeled Aβ 1–40 associated with chylomicron-like particles, literature study”, in series [7], the transport into organs result was “can be transported into diverse organs including adipose tissue and brain”.
